Data as given in US7943628B2, “Pyrimidine derivatives” (Pfizer Limited, priority 2005, dated 2011).

Biological target: T1, histamine H4 receptor (Homo sapiens, UniProt Q9H3N8)
T1 construct: expressed in transfected cells; host or cells: CHO cells
Assay: H4 binding, method 1 ([3H]-histamine filtration binding on CHO cell membranes)
Settings: for Ki: H4 binding, method 1, Ki calculated from IC50 (Cheng-Prussoff); for Method 1, activity at top dose (10 μM): top dose 10 μM
Outline: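 Membranes from CHO cells expressing human H4 receptor (20-35 μg/well) incubated 90 min at room temperature with 3 nM [3H]-histamine in 50 mM Tris-HCl pH 7.4, ± competitor. Bound label separated by filtration on PEI-soaked GF/B filters and counted by scintillation; non-specific binding with 10 μM JNJ7777120.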

T1 sequence (Q9H3N8 whole entry): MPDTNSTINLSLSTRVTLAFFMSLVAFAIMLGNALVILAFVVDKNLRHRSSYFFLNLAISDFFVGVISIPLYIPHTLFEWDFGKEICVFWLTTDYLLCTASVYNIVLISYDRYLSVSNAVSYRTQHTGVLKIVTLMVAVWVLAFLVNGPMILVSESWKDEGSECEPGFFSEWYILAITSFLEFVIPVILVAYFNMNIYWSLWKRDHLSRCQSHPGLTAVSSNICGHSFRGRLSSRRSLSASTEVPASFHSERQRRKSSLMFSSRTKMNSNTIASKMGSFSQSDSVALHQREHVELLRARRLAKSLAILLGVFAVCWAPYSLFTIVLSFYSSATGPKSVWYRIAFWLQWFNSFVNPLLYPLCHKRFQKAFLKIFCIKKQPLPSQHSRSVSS

`c1nc(NC[C@@H]2CCCO2)cc(N[C@H]2CCNC2)n1` [Example 290, N-[(3S)-Pyrrolidin-3-yl]-N′-[(2S)-tetrahydrofuran-2-ylmethyl]pyrimidine-4,6-diamine] was tested, and the inhibition at 10 µM (1.5 h) was 24%.

For `CN[C@@H]1CCN(c2ncnc(NCC3CC3)c2C)C1` [Example 291, N-(Cyclopropylmethyl)-5-methyl-6-[(3R)-3-(methylamino)pyrrolidin-1-yl]pyrimidin-4-amine], the “Method 1, activity at top dose (6.3 μM)” value (top dose 6.3 μM) was “No activity at top”.

Molecule `CC(C)(C)CCNc1cc(N2CCC(N)C2)ncn1` (centres unmarked) [Example 292, 6-(3-Aminopyrrolidin-1-yl)-N-(3,3-dimethylbutyl)pyrimidin-4-amine] has a Ki of 2590 nM.

`CN1CCN(c2cc(N3CCOCC3)ncn2)CC1` [Example 293, 4-[6-(4-Methylpiperazin-1-yl)pyrimidin-4-yl]morpholine] was tested, and the Ki was 3040 nM.

For `CNC1CCCN(c2cc(NCC3CC3)nc(N)n2)C1` (centres unmarked) [Example 294, N^4-(Cyclopropylmethyl)-6-[3-(methylamino)piperidin-1-yl]pyrimidine-2,4-diamine], the inhibition at 20 µM (1.5 h) was 91%.

Work on `CNC1CN(c2cc(N3CCCCC3)nc(N)n2)C1` [Example 295, 4-[3-(Methylamino)azetidin-1-yl]-6-piperidin-1-ylpyrimidin-2-amine] yielded a Ki of 3180 nM.

With `CN1CC[C@H](Nc2cc(NCCC(C)(C)C)ncn2)C1` [Example 296, N-(3,3-Dimethylbutyl)-N′-[(3S)-1-methylpyrrolidin-3-yl]pyrimidine-4,6-diamine] the Ki was 3300 nM.

For `CC(C)(C)CNc1cc(N2C[C@H]3C[C@@]3(N)C2)ncn1` [Example 297, (1S,5R)-3-{6-[(2,2-Dimethylpropyl)amino]pyrimidin-4-yl}-3-azabicyclo[3.1.0]hexan-1-amine], the inhibition at 10 µM (1.5 h) was 30%.

`CNC1(C)CN(c2cc(NCCC(C)(C)C)nc(N)n2)C1` [Example 298, N^4-(3,3-Dimethylbutyl)-6-[3-methyl-3-(methylamino)azetidin-1-yl]pyrimidine-2,4-diamine] was tested, and the “Method 1, activity at top dose (10 μM)” value was “No activity at top”.

In the case of `Cn1ccnc1CN1CCN(c2cc(NCCC(C)(C)C)ncn2)CC1` [Example 299, N-(3,3-Dimethylbutyl)-6-{4-[(1-methyl-1H-imidazol-2-yl)methyl]piperazin-1-yl}pyrimidin-4-amine], the “Method 1, activity at top dose (10 μM)” value is reported as “No activity at top”.

In the case of `CN(C)C1[C@H]2CN(c3cc(NCCC(C)(C)C)ncn3)C[C@@H]12` (stereo partly drawn) [Example 300, (1R*,5S*,6s*)-3-{6-[(3,3-Dimethylbutyl)amino]pyrimidin-4-yl}-N,N-dimethyl-3-azabicyclo[3.1.0]hexan-6-amine], the “Method 1, % at 10 μM” value (at 10 μM) is reported as 35% at 10 μM.

For `CC(C)(C)CCNc1cc(N2CCC(N3CCCC3)CC2)ncn1` [Example 301, N-(3,3-Dimethylbutyl)-6-(4-pyrrolidin-1-ylpiperidin-1-yl)pyrimidin-4-amine], the “Method 1, activity at top dose (10 μM)” value was “No activity at top”.

In the case of `CCN(CC)C1CCN(c2cc(NCC(C)(C)C)ncn2)C1` (centres unmarked) [Example 302, 6-[3-(Diethylamino)pyrrolidin-1-yl]-N-(2,2-dimethylpropyl)pyrimidin-4-amine], the inhibition at 10 µM (1.5 h) is reported as 20%.

With `CC(C)(C)CNc1cc(N2CCN(C3CNC3)CC2)ncn1` [Example 303, 6-(4-Azetidin-3-ylpiperazin-1-yl)-N-(2,2-dimethylpropyl)pyrimidin-4-amine] the inhibition at 10 µM (1.5 h) was 38%.

With `c1nc(NCC2CC2)cc(N2CCN(C3CCCCC3)CC2)n1` [Example 305, 6-(4-Cyclohexylpiperazin-1-yl)-N-(cyclopropylmethyl)pyrimidin-4-amine] the “Method 1, activity at top dose (10 μM)” value was “No activity at top”.

In the case of `CCN(CC)CCN(C)c1cc(NCC2CC2)ncn1` [Example 306, N′-(Cyclopropylmethyl)-N-[2-(diethylamino)ethyl]-N-methylpyrimidine-4,6-diamine], the inhibition at 10 µM (1.5 h) is reported as 18%.

For `CC(C)(C)CCNc1cc(N2CCN(CCO)CC2)ncn1` [Example 307, 2-(4-{6-[(3,3-Dimethylbutyl)amino]pyrimidin-4-yl}piperazin-1-yl)ethanol], the inhibition at 10 µM (1.5 h) was 24%.
